{
  "source": "ChEMBL document CHEMBL3632565",
  "about": "“The use of porcupine inhibitors to target Wnt-driven cancers” (Bioorg Med Chem Lett, 2015)",
  "key": {"[1]": {"target": "T1, Protein-serine O-palmitoleoyltransferase porcupine (Homo sapiens) (UniProt Q9H237)", "T1 sequence (whole entry)": "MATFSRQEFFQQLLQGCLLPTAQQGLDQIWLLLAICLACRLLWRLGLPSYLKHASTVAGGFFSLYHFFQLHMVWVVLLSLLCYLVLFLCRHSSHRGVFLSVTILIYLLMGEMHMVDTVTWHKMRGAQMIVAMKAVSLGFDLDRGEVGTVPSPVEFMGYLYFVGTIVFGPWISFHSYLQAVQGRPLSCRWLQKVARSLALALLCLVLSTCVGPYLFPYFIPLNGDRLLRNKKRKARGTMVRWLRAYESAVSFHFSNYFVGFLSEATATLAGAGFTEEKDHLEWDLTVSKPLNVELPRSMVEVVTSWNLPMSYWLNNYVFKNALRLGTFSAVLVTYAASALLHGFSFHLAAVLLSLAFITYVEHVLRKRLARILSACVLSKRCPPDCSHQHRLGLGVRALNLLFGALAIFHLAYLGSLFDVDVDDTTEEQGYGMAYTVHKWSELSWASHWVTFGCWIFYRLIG", "experiment": "(§1) Inhibition of porcupine in human HEK293 cells assessed as reduction in Wnt secretion by measuring suppression of beta-catenin reporter activity after 24 hrs by STF reporter assay", "type": "cell-based"}, "[2]": {"target": "T2, Protein-serine O-palmitoleoyltransferase porcupine (Homo sapiens, UniProt Q9H237)", "T2 sequence (Q9H237 whole entry)": "T1 sequence (whole entry)", "experiment": "Inhibition of porcupine activity (unknown origin) expressed in human HT1080 cells assessed as suppression of Wnt3A-mediated super top flash activity by STF luciferase assay", "type": "cell-based, HT-1080"}, "[3]": {"target": "T2, Protein-serine O-palmitoleoyltransferase porcupine", "experiment": "Inhibition of porcupine in human HEK293 cells by STF reporter assay", "type": "cell-based"}, "[4]": {"target": "T1, Protein-serine O-palmitoleoyltransferase porcupine (Homo sapiens)", "experiment": "Binding affinity to porcupine (unknown origin)"}, "[5]": {"target": "T2, Protein-serine O-palmitoleoyltransferase porcupine", "experiment": "as §1", "type": "cell-based"}, "[6]": {"target": "T3, Protein-serine O-palmitoleoyltransferase porcupine (Mus musculus, UniProt Q9JJJ7)", "T3 sequence (Q9JJJ7 whole entry)": "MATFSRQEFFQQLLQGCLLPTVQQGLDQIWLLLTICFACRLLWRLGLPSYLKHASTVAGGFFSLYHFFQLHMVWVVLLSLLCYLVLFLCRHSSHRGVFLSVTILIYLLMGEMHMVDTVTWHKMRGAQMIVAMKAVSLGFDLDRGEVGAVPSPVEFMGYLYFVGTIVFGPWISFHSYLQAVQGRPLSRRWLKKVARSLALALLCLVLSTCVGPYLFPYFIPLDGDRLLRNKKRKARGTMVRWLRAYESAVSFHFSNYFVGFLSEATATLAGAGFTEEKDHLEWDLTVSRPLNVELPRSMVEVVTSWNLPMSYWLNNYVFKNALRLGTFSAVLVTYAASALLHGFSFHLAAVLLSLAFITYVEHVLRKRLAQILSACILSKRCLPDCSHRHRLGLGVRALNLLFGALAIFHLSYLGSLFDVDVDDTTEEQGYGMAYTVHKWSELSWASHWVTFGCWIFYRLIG", "experiment": "Inhibition of mouse porcupine expressed in human HT1080 cells assessed as reduction in beta catenin reporter activity using firefly luciferase substrate STF reporter assay", "type": "cell-based, HT-1080"}, "[7]": {"experiment": "Inhibition of xenopus porcupine expressed in human HT1080 cells assessed as reduction in beta catenin reporter activity using firefly luciferase substrate STF reporter assay", "type": "cell-based", "settings": "ht-1080"}, "[8]": {"experiment": "(§2) Antitumor activity against human HPAF2 cells xenografted in Balb/c mouse assessed as tumor growth inhibition at 100 mg/kg", "type": "functional", "settings": "HPAF-II, read-out: TGI"}, "HPAF-II": {"tested_on": "HPAF-II", "experiment": "as §2", "type": "functional"}},
  "data": [
    {"smiles": "C[C@@H](C(=O)Nc1ccc(-c2ccsc2)cc1)n1cnc2c1c(=O)n(C)c(=O)n2C", "values": [
      {"measurement": "inhibition", "setting": "[1]", "result": "Dose-dependent effect"}
    ]},
    {"smiles": "COc1ccc(-n2nc(C(=O)NCC(=O)Nc3nc4ccc(OC)cc4s3)c3ccccc3c2=O)cc1", "values": [
      {"measurement": "IC50", "setting": "[2]", "result": 60, "unit": "nM"}
    ]},
    {"smiles": "Cn1c(=O)c2c(nc3n2[C@H](CC(=O)Nc2ccc(-c4ccccc4)nn2)CC3)n(C)c1=O", "values": [
      {"measurement": "IC50", "setting": "[3]", "result": 5, "unit": "nM"}
    ]},
    {"smiles": "Cc1cc(-c2ccc(CC(=O)Nc3ccc(-c4cccnc4)cc3)cc2)ccn1", "values": [
      {"measurement": "IC50", "setting": "[2]", "result": 0.074, "unit": "nM"}
    ]},
    {"smiles": "COc1ccc2nc(NC(=O)CNC(=O)c3ccc(=O)n(-c4ccccc4)c3)sc2c1", "values": [
      {"measurement": "Activity", "setting": "[4]", "result": "> 25", "unit": "µM"}
    ]},
    {"smiles": "O=C(CNC(=O)c1nn(-c2ccccc2)c(=O)c2ccccc12)Nc1nccs1", "values": [
      {"measurement": "Activity", "setting": "[4]", "result": "> 25", "unit": "µM"}
    ]},
    {"smiles": "C[C@H](C(=O)Nc1ccc(-c2ccsc2)cc1)n1cnc2c1c(=O)n(C)c(=O)n2C", "values": [
      {"measurement": "IC50", "setting": "[5]", "result": 5.4, "unit": "µM"}
    ]},
    {"smiles": "Cn1c(=O)c2c(ncn2CC(=O)Nc2ccc(-c3ccccc3)nn2)n(C)c1=O", "note": "[ETC-159]", "values": [
      {"measurement": "inhibition", "setting": "[1]", "result": "Dose-dependent effect"},
      {"measurement": "IC50", "setting": "[6]", "result": 18.1, "unit": "nM"},
      {"measurement": "IC50", "setting": "[7]", "result": 70, "unit": "nM"},
      {"measurement": "inhibition in vivo at 100 mg/kg", "setting": "[8]", "result": 90, "unit": "%"},
      {"measurement": "TGI", "setting": "HPAF-II", "result": "Dose-dependent effect"}
    ]}
  ]
}
